Assay results reported in patent EP0337167B1, “4-Aryl-4-piperidine (or pyrrolidine or hexahydroazepine) carbinols and heterocyclic analogs thereof” (THE DU PONT MERCK PHARMACEUTICAL COMPANY, priority 1988, dated 1989).
Where two headings read alike, the source gives them in different places.

What was measured:
Male CF1 mice = assay: Mouse antiphenylquinone writhing (PQW) test; type: in vivo; set-up: Mouse PQW ED50 (mg/kg): unit not given here; conditions: for ED50: Mus musculus, 0.5 h, phenylquinone 1.25 mg/kg i.p., observation beginning 30 min after injection of test compound; for ED50 / Mouse PQW remark: Table 3; for Mouse PQW remark: remark beside S.C and P.O values; for Mouse PQW ED50 (mg/kg): Table 4, 3° carbinols within the scope of U.S. 4,485,109, head prints neither endpoint nor unit
Protocol: The anti-pheylquinone writhing (PQW) test modified from the methods of Siegmund et al. (Proc. Soc. Exp. Biol. Med. 95: 729-731, 1957) and Blumberg et al. (Proc. Exp. Biol. Med. 118: 763-767, 1965) was used to assess analgesia in mice. Male CF1 mice (Charles River Breeding Laboratories, Wilmington, MA), fasted for 16-22 h and weighing 18-23 g, were injected with randomized and coded doses of test compounds, then challenged with 1.25 mg/kg i.p. phenyl-p-benzoquinone (phenylquinone) 5 min prior to the specified observation time. The phenylquinone solution (0.1 mg/ml in 5% aqueous ethanol) was prepared daily and stored in foil-wrapped amber bottles to limit degradation. Mice were observed 10 min for the presence or absence of the characteristic abdominal constriction and stretching response beginning 30 min after injection of the test compound. Analgetic activity was calculated as the percentage of mice failing to respond to the phenylquinone challenge dose. […] Median effective doses (ED50's) and 95% confidence limits were determined numerically by the methods of Thompson (Bacteriological Rev. 11: 115-145, 1947), and Litchfield and Wilcoxon (J. Pharmacol. Exp. Ther. 96: 99.113, 1949).
The data shown in Table show the PQW ED₅₀ values for the compounds of the aforesaid examples.
Table 4 illustrates that the 3° carbinols within the scope of U.S. 4,485,109 have utility as analgesic agents.

Male CF mice = assay: Antagonism of tetrabenazine-induced depression (exploratory loss and ptosis) in mice; type: in vivo; conditions: Mus musculus, po, 1 h, orally, one hour post-drug, tetrabenazine methane sulfonate 52 mg/kg i.p., read-out: Oral ED₅₀ (mg/kg) for Prevention of Ptosis
Text: The prevention of tetrabenazine-induced sedation and depression in mice is a standard procedure used to detect and compare antidepressant compounds. The activity of antidepressant compounds in this procedure correlates well with human efficacy. (Barnett, et al., Int. J. Neuropharmac. 8: 73-79, 1969, and Vernier, et al., "The Pharmacodynamics of Amitriptyline" in Psychsomatic Medicine (Nodine & Moyer, editors) pp. 683-690, 1962).
Male CF mice (Charles River Breeding Laboratories, Wilmingon, MA), fasted for 16-22 hours and weighing 18-25 g, were injected with randomized and coded does of test compounds, then challenged with 52 mg/kg i.p. tetrabenazine methane sulfonate 30 minutes prior to the specified observation time. The tetrabenazine methane sulfonate solution (5.2 mg/ml in distilled water) was prepared daily and stored in foil-wrapped amber bottles to limit degradation. […] Exploratory loss was defined as failing to move to the perimeter of a 12.7 cm (5 inch) (12.7 cm) circle within 15 seconds of being placed at the center of the circle. Ptosis was defined as both eyelids closed 50% or more compared to normal. Antidepressant activity was calculated as the percentage of mice failing to respond to the tetrabenazine challenge dose. […] Median effective does (ED₅₀'s) were estimated using the Moving Average method of Thompson (Bacteriological Rev. 11: 115-145, 1947).
The data in Table 5 show ED₅₀ values for the compounds of the aforesaid examples.

[1] = literature statement (A. L. Morrison et al., J.Chem. Soc., 1467, 1950); cited from earlier work
[2] = po, p.o., read-out: Mouse PQW ED₅₀ (Mg/Kg) P.O
[3] = sc, s.c., read-out: Mouse PQW ED₅₀ (Mg/Kg) S.C

SMILES	ED50 (Male CF1 mice; [2]) [mg/kg]	ED50 (Male CF1 mice; [3]) [mg/kg]	Mouse PQW ED50 (mg/kg) (Male CF1 mice; p.o.)	also measured
CN1CCC(c2cccc3ccccc23)(C(C)(C)O)CC1 [Example 50]	67	24	–	–
CCCN1CCC(c2cccc(Cl)c2)(C(C)O)CC1 (centres unmarked) [Example 34]	> 81	38	–	–
CC(O)C1(c2ccccc2F)CCN(C)CC1 (centres unmarked) [Example 4]	> 81	> 81	–	Mouse PQW remark (Male CF1 mice): Inactive
COc1ccc(C2(C(C)O)CCN(C)CC2)cc1 (centres unmarked) [Example 17]	> 81	> 81	–	ED50 (Male CF mice): 1.3 mg/kg; Mouse PQW remark (Male CF1 mice): Inactive
CC(O)C1(c2ccc(Cl)cc2)CCN(C)CC1 (centres unmarked) [Example 8]	> 81	30	–	–
CC(O)C1(c2cccc(F)c2)CCN(C)CC1 (centres unmarked) [Example 5]	> 81	24	–	–
CN1CCC(c2csc3ccccc23)(C(C)(C)O)CC1 [Example 45]	54	4.2	–	–
CN1CCC(c2cccc(Cl)c2)(C(C)(C)O)C1 (stereo not drawn) [Example 70, 3-(3'Chlorophenyl)-α,α,1-trimethyl-3-pyrrolidinemethanol]	13	10	–	–
CCC(C)(O)C1(c2cccc(C(F)(F)F)c2)CCN(C)CC1 (centres unmarked) [V]	–	–	23.0	–
CC(O)C1(c2ccsc2)CCN(C)CC1 (stereo not drawn) [Example 27, 4-(3-Thienyl)-α,1-dimethylpiperidinemethanol]	16	13	–	–
CC(O)C1(c2csc3ccccc23)CCN(C)CC1 (centres unmarked) [Example 29]	47	6.8	–	–
CCC(O)C1(c2cccc(Cl)c2)CCN(C)CC1 (centres unmarked) [Example 35]	30	16	–	–
CCC(O)C1(c2ccccc2)CCN(C)CC1 (centres unmarked) [4-phenyl-1-methyl-4-(1-hydroxypropyl)piperidine, reference compound]	–	–	–	analgesic activity compared with the parent ketones [1]: much less active as analgesics than the parent ketones
Cc1ccccc1C1(C(C)O)CCN(C)CC1 (centres unmarked) [Example 12]	> 81	> 81	–	ED50 (Male CF mice): 1.03 mg/kg; Mouse PQW remark (Male CF1 mice): Inactive
CC(O)C1(c2ccc(F)c(F)c2)CCN(C)CC1 (centres unmarked) [Example 7]	> 81	38	–	–
C=CCN1CCC(c2cccc(Cl)c2)(C(C)(C)O)CC1 [Example 42, 1-allyl,4-(3'-chlorophenyl)-α,α dimethyl-4-piperidinemethanol]	54	27	–	–
Cc1cc(C)cc(C2(C(C)(C)O)CCN(C)CC2)c1 [U]	–	–	47.0	Mouse PQW ED50 (mg/kg) (Male CF1 mice; s.c.): 4.5
COc1cccc(C2(C3(O)CCCCC3)CCN(C)CC2)c1 [GG]	–	–	<108.0	–
COC(C)C1(c2cccc(Cl)c2)CCN(C)CC1 (centres unmarked) [Example 68]	19	6.5	–	–
CN1CCC(c2cccc(Cl)c2)(C(C)(C)O)CC1 [Example 1a, 4-(3'-Chlorophenyl)-α,α,1-trimethyl-4-piperidinemethanol]	10	16.1	–	–
CCN1CCC(c2cccc(Cl)c2)(C(C)O)CC1 (stereo not drawn) [Example 2, 4-(3'-Chlorophenyl)-1-ethyl-α-methyl-4-piperidinemethanol]	> 81	62	–	–
CC(O)C1(c2ccc(Br)cc2)CCN(C)CC1 (centres unmarked) [Example 11]	> 81	> 81	–	Mouse PQW remark (Male CF1 mice): Inactive
CC(=O)OC(C)C1(c2cccc(Cl)c2)CCN(C)CC1 (stereo not drawn) [Example 66, 4-(3'-Chlorophenyl)-α,1-dimethyl-4-piperidinemethanol-Acetate]	19	13	–	–
CC(O)C1(c2ccc3ccccc3c2)CCN(C)CC1 (centres unmarked) [Example 25]	> 81	16	–	–
CC(O)C1(c2cccs2)CCN(C)CC1 (stereo not drawn) [Example 26, 4-(2-Thienyl)-α,1-dimethylpiperidinemethanol]	19	13	–	–
COc1cccc(C2(C3(O)CCCC3)CCN(C)CC2)c1 [FF]	–	–	47.0	Mouse PQW ED50 (mg/kg) (Male CF1 mice; s.c.): 16.0
CC(O)C1(c2cccc(C(F)(F)F)c2)CCN(C)CC1 (centres unmarked) [Example 15]	30	19	–	–

SMILES	ED50 (Male CF1 mice; [2]) [mg/kg]	ED50 (Male CF1 mice; [3]) [mg/kg]	Mouse PQW ED50 (mg/kg) (Male CF1 mice; p.o.)	also measured
Cc1cccc(C2(C(C)O)CCN(C)CC2)c1 (centres unmarked) [Example 13]	47	4.7	–	–
CN1CCC(c2cccc(Br)c2)(C(C)(C)O)CC1 [Example 41, 4-(3'-Bromophenyl)-α,α,1-trimethyl-4-piperidinemethanol]	24	19	–	–
CN1CCC(c2cccc(C(F)(F)F)c2)(C2(O)CCCC2)CC1 [W]	–	–	12.0	Mouse PQW ED50 (mg/kg) (Male CF1 mice; s.c.): 16.0
CCC(O)(CC)C1(c2cccc(OC)c2)CCN(C)CC1 [DD]	–	–	12.0	–
CC(O)C1(c2ccc(F)cc2)CCN(C)CC1 (centres unmarked) [Example 6]	> 81	54	–	–
CN1CCC(c2ccsc2)(C(C)(C)O)CC1 [Example 44]	24	6.5	–	–
CC1CCC(O)(C2(c3cccc(C(F)(F)F)c3)CCN(C)CC2)C1 (centres unmarked) [Y]	–	–	25.0	–
Cc1ccc(C2(C(C)(C)O)CCN(C)CC2)s1 [LL]	–	–	36.0	Mouse PQW ED50 (mg/kg) (Male CF1 mice; s.c.): 9.0
CC(OCc1ccccc1)C1(c2cccc(Cl)c2)CCN(C)CC1 (centres unmarked) [Example 69]	> 81	62	–	–
CSc1ccc(C2(C(C)(C)O)CCN(C)CC2)cc1 [II]	–	–	59.0	–
CCCCC(O)C1(c2cccc(Cl)c2)CCN(C)CC1 (centres unmarked) [Example 37]	> 81	48	–	–
CN1CCC(c2cccs2)(C(C)(C)O)CC1 [Example 43]	36	13	–	–
CN1CCC(c2cccc(F)c2)(C(C)(C)O)CC1 [X]	–	–	>81.0	Mouse PQW ED50 (mg/kg) (Male CF1 mice; s.c.): 10.0
CN1CCC(c2ccc3ccccc3c2)(C(C)(C)O)CC1 [KK]	–	–	47.0	Mouse PQW ED50 (mg/kg) (Male CF1 mice; s.c.): 27.0
CCOc1cccc(C2(C(C)(C)O)CCN(C)CC2)c1 [HH]	–	–	32.0	Mouse PQW ED50 (mg/kg) (Male CF1 mice; s.c.): 9.0
CC(O)C1(c2cccc(Cl)c2)CCCN(C)CC1 (stereo not drawn) [Example 71, 4-(3'-Chlorophenyl)-α,1-dimethyl-2,3,4,5,6,7-hexahydro-1H-azepine-4-methanol]	16	8.1	–	–
Cc1ccc(C2(C(C)O)CCN(C)CC2)cc1 (centres unmarked) [Example 14]	> 81	54	–	–
CN1CCC(c2cccc(O)c2)(C(C)(C)O)CC1 [AA]	–	–	>81.0	Mouse PQW ED50 (mg/kg) (Male CF1 mice; s.c.): 62.0
CC(O)C1(c2ccc(Cl)c(Cl)c2)CCN(C)CC1 (centres unmarked) [Example 9]	32	> 81	–	–
CN1CCC(c2ccccn2)(C(C)(C)O)CC1 [Example 46, reference compound]	> 81	> 81	–	Mouse PQW remark (Male CF1 mice): Inactive
COc1cccc(C2(C(C)(C)O)CCN(C)CC2)c1 [BB]	–	–	19.0	Mouse PQW ED50 (mg/kg) (Male CF1 mice; s.c.): 12.0
COc1cccc(C2(C3(O)CCC3)CCN(C)CC2)c1 [EE]	–	–	>54.0	Mouse PQW ED50 (mg/kg) (Male CF1 mice; s.c.): 22.0
CCC(C)(O)C1(c2cccc(OC)c2)CCN(C)CC1 (centres unmarked) [CC]	–	–	68.0	Mouse PQW ED50 (mg/kg) (Male CF1 mice; s.c.): 23.0
CC(O)C1(c2cccc(Br)c2)CCN(C)CC1 (stereo not drawn) [Example 10, 4-(3'-Bromophenyl)-α,1-dimethylpiperidinemethanol]	16	6.5	–	–
CC(=O)OC(C)(C)C1(c2cccc(Cl)c2)CCN(C)CC1 [Example 67, 4-(3'-Chlorophenyl)-α,α,1-trimethyl-4-piperidinemethanol Acetate]	5.2	1.8	–	–
CCCC(O)C1(c2cccc(Cl)c2)CCN(C)CC1 (centres unmarked) [Example 36]	> 81	67	–	–
